Here are results for 22 compounds from US11414416B1, “Compounds and uses thereof” (Foghorn Therapeutics Inc., priority 2019, dated 2022).

Assay [1] addresses BRD9 bromodomain (Homo sapiens (Human), UniProt Q9H8M2). The experiment in a line: BRD9 bromodomain TR-FRET competition binding assay. The following applies: Table 4; competition with biotinylated ligand, 3 nM Flag-BRD9, 90 minutes. Here is the method:
Procedure: His-Flag-BRD9 (P133-K239; Swiss Prot Q9H8M2; SEQ ID NO:1 mgsshhhhhhenlyfq/gdykddddkgslevlfqg/[…] […]) was cloned, expressed, purified, and then treated with TEV protease. Cleaved His tag was removed by purification. The binding of a biotinylated small molecule ligand of BRD9 was assessed via the LANCE® TR-FRET platform (PerkinElmer), and the compounds were assayed for inhibitory activity against this interaction.
A mixture of biotinylated-ligand and SureLight™ Allophycocyanin-Streptavidin (APC-SA, PerkinElmer AD0201) in 50 mM HEPES (pH 7.4), 50 mM NaCl, 1 mM TCEP (pH 7), 0.01% (v/v) Tween-20, 0.01% (w/v) bovine serum albumin was added to a white 384-well PerkinElmer Proxiplate Plus plate. DMSO or 3-fold serially diluted compounds were then added to the Proxiplate followed by addition of Flag-BRD9. After a 10-minute incubation at room temperature, Eu-W1024 anti-FLAG (PerkinElmer, AD0273) was added. The final reaction mixture that contained 3.75 nM biotinylated ligand, 3 nM Flag-BRD9, 7.5 nM SureLight™ Allophycocyanin-Streptavidin, and 0.2 nM Eu-W1024 anti-FLAG was incubated at room temperature for 90 minutes.
Results: The plates were then read on a PerkinElmer Envision plate reader to determine the ratio of emission at 665 nm over 615 nm. […]

The target in assay [2] is Nanoluciferase-BRD9 fusion protein (Homo sapiens (Human), UniProt Q9H8M2). Put plainly: SYO1 BRD9 NanoLuc degradation assay. Format: cell-based. The following applies: Table 5A, SYO-1 cells expressing 3×FLAG-NLuc-BRD9, 6 hours; for DC50: read-out: SYO1 BRD9-NanoLuc degradation IC50. The essentials:
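Degradation was read as loss of nanoluciferase signal (Nano-Glo) after 6 h compound exposure in a stable SYO-1 line carrying 3×FLAG-NLuc-BRD9 (8000 cells/well). Normalised between DMSO (high) and a 1 μM known BRD9 degrader (low).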

Sequence of Nanoluciferase-BRD9 fusion protein (Q9H8M2 whole entry, the tested form may be a part): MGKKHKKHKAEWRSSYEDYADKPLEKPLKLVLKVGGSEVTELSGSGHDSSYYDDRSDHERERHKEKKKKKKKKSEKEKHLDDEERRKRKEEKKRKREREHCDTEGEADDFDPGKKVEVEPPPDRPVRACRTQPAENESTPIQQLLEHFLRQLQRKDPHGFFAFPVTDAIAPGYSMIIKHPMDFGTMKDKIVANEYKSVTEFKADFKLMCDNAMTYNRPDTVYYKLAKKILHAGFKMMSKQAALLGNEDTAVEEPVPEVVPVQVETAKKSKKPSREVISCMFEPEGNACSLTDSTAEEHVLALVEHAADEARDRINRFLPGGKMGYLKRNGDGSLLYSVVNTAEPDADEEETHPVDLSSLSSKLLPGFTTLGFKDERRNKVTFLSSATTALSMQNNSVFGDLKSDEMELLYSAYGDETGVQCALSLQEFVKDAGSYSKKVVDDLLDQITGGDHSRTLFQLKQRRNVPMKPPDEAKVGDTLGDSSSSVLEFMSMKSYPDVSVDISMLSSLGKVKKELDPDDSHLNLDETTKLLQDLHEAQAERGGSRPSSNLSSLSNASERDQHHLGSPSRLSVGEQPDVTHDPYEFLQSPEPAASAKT
Sequence of BRD9 bromodomain (Q9H8M2 133-239): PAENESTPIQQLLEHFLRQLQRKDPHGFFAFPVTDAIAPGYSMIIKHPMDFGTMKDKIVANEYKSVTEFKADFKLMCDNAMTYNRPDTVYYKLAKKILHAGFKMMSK

On to `COc1cc(-c2cn(C)c(=O)c3cnccc23)cc(OC)c1CN1CC2(C1)CN(C(=O)CCCCOc1cccc3c1C(=O)N(C1CCC(=O)NC1=O)C3=O)C2` (centres unmarked) [Compound D34, 4-((5-(6-(2,6-dimethoxy-4-(2-methyl-1-oxo-1,2-dihydro-2,7-naphthyridin-4-yl)benzyl)-2,6-diazaspiro[3.3]heptan-2-yl)-5-oxopentyl)oxy)-2-(2,6-dioxopiperidin-3-yl)isoindoline-1,3-dione], for which the IC50 in assay [1] and in assay [2] was less than 10 nM throughout.

As to `COc1cc(-c2cn(C)c(=O)c3cnccc23)cc(OC)c1CN1CCC2(CC1)CN(C(=O)CCCCOc1cccc3c1C(=O)N(C1CCC(=O)NC1=O)C3=O)CCO2` (centres unmarked) [Compound D40, 4-[[5-(9-[[2,6-dimethoxy-4-(2-methyl-1-oxo-2,7-naphthyridin-4-yl)phenyl]methyl]-1-oxa-4,9-diazaspiro[5.5]undecan-4-yl)-5-oxopentyl]oxy]-2-(2,6-dioxopiperidin-3-yl)isoindole-1,3-dione formic acid], the 50% inhibitory concentration (IC50) in assay [1] and in assay [2] was less than 10 nM throughout.

In the case of `COc1cc(-c2cn(C)c(=O)c3cc(O)ccc23)cc(OC)c1CN1CCC2(CC1)CN(C(=O)CCCOc1cccc3c1C(=O)N(C1CCC(=O)NC1=O)C3=O)CCO2` (centres unmarked) [Compound D54, 2-(2,6-dioxopiperidin-3-yl)-4-[4-(9-[[4-(7-hydroxy-2-methyl-1-oxoisoquinolin-4-yl)-2,6-dimethoxyphenyl]methyl]-1-oxa-4,9-diazaspiro[5.5]undecan-4-yl)-4-oxobutoxy]isoindole-1,3-dione formic acid], the concentration for half-maximal inhibition (IC50) in assay [1] and in assay [2] was 10 to 100 nM in each case.

For `COc1cc(-c2cn(C)c(=O)c3cnccc23)cc(OC)c1CN1CC2C1CCN2C(=O)CCOCCOc1cccc2c1C(=O)N(C1CCC(=O)NC1=O)C2=O` (centres unmarked) [Compound D113], the IC50 in assay [1] and in assay [2] was less than 10 nM throughout.

`COc1cc(-c2cn(C)c(=O)c3cnccc23)cc(OC)c1CN(C)CCCN1CCC(Oc2ccc3c(c2)C(=O)N(C2CCC(=O)NC2=O)C3=O)CC1` (centres unmarked) [Compound D52, 5-((1-(3-((2,6-dimethoxy-4-(2-methyl-1-oxo-1,2-dihydro-2,7-naphthyridin-4-yl)benzyl) (methyl)amino)propyl)piperidin-4-yl)oxy)-2-(2,6-dioxopiperidin-3-yl)isoindoline-1,3-dione formic acid]: the concentration for half-maximal inhibition (IC50) in assay [1] and in assay [2] was less than 10 nM in each case.

Turning to `COc1cc(-c2cn(C)c(=O)c3cnccc23)cc(OC)c1CN1CCC2(C[C@H]2NC(=O)CCOCCOc2ccc3c(c2)C(=O)N(C2CCC(=O)NC2=O)C3=O)C1` (some centres unmarked) [Compound D126], the concentration for half-maximal inhibition (IC50) in assay [1] was in the range of 10 to 100 nM; in assay [2], 100 to 1000 nM.

`COc1cc(-c2cn(C)c(=O)c3cnccc23)cc(OC)c1CN(C)CC1CC2(CCN(C(=O)CCOCCOc3ccc4c(c3)C(=O)N(C3CCC(=O)NC3=O)C4=O)CC2)C1` (centres unmarked) [Compound D175]: the IC50 in assay [1] and in assay [2] was 10 to 100 nM each time.

Turning to `COc1cc(-c2cn(C)c(=O)c3cnccc23)cc(OC)c1CN(C)C1CC2CC1CN2C(=O)CCOCCOc1ccc2c(c1)C(=O)N(C1CCC(=O)NC1=O)C2=O` (centres unmarked) [Compound D171], the results for the IC50 in assay [1] and in assay [2] were 10 to 100 nM and less than 10 nM, respectively.

For the compound `COc1cc(-c2cn(C)c(=O)c3cnccc23)cc(OC)c1CN1CC2(CCC2NC(=O)CCOCCOc2ccc3c(c2)C(=O)N(C2CCC(=O)NC2=O)C3=O)C1` (centres unmarked) [Compound D115], the IC50 in assay [1] fell in the range of 10 to 100 nM; in assay [2] it was 100 to 1000 nM.

Regarding `COc1cc(-c2cn(C)c(=O)c3cnccc23)cc(OC)c1CN(C)CC12CC(NC(=O)CCCCOc3cccc4c3C(=O)N(C3CCC(=O)NC3=O)C4=O)(C1)C2` (centres unmarked) [Compound D69, N-[3-[([[2,6-dimethoxy-4-(2-methyl-1-oxo-2,7-naphthyridin-4-yl)phenyl]methyl](methyl)amino)methyl]bicyclo[1.1.1]pentan-1-yl]-5-[[2-(2,6-dioxopiperidin-3-yl)-1,3-dioxoisoindol-4-yl]oxy]pentanamide], the IC50 in assay [1] and in assay [2] was less than 10 nM throughout.

`COc1cc(-c2cn(C)c(=O)c3cnccc23)cc(OC)c1CN1CC2CN(C(=O)CCOCCOc3ccc4c(c3)C(=O)N(C3CCC(=O)NC3=O)C4=O)CCC21` (centres unmarked) [Compound D100]: the IC50 in assay [1] and in assay [2] was less than 10 nM throughout.

For the compound `COc1cc(-c2cn(C)c(=O)c3cnccc23)cc(OC)c1CN1CCC12CCN(C(=O)CCOCCOc1cccc3c1C(=O)N(C1CCC(=O)NC1=O)C3=O)C2` (centres unmarked) [Compound D95], the 50% inhibitory concentration (IC50) in assay [1] lay in the range of 10 to 100 nM; in assay [2], 100 to 1000 nM.

Turning to `COc1cc(-c2cn(C)c(=O)c3cnccc23)cc(OC)c1CN1CC2(C1)CN(C(=O)CCCOc1cccc3c1C(=O)N(C1CCC(=O)NC1=O)C3=O)C2` (centres unmarked) [Compound D32, 4-(4-(6-(2,6-dimethoxy-4-(2-methyl-1-oxo-1,2-dihydro-2,7-naphthyridin-4-yl)benzyl)-2,6-diazaspiro[3.3]heptan-2-yl)-4-oxobutoxy)-2-(2,6-dioxopiperidin-3-yl)isoindoline-1,3-dione], the half-maximal inhibitory concentration (IC50) in assay [1] is less than 10 nM. Moreover, the DC50 in assay [2] is 10 to 100 nM.

In assay [1], `COc1cc(-c2cn(C)c(=O)c3cnccc23)cc(OC)c1CN1CCC12CCN(C(=O)CCOCCOc1ccc3c(c1)C(=O)N(C1CCC(=O)NC1=O)C3=O)C2` (centres unmarked) [Compound D127] had a 50% inhibitory concentration (IC50) of less than 10 nM. The DC50 in assay [2] lay in the range of 100 to 1000 nM.

As to `COc1cc(-c2cn(C)c(=O)c3cnccc23)cc(OC)c1CN(C)CC12CC(NC(=O)CCOCCOCCNc3cccc4c3C(=O)N(C3CCC(=O)NC3=O)C4=O)(C1)C2` (centres unmarked) [Compound D68, N-[3-[([[2,6-dimethoxy-4-(2-methyl-1-oxo-2,7-naphthyridin-4-yl)phenyl]methyl](methyl)amino)methyl]bicyclo[1.1.1]pentan-1-yl]-3-[2-(2-[[2-(2,6-dioxopiperidin-3-yl)-1,3-dioxoisoindol-4-yl]amino]ethoxy)ethoxy]propanamide formic acid], the IC50 in assay [1] was less than 10 nM. Also, in assay [2], the DC50 lay in the range of 100 to 1000 nM.

`COc1cc(-c2cn(C)c(=O)c3cnccc23)cc(OC)c1CN1CC[C@H]1CN(C)Cc1cccc2c1C(=O)N(C1CCC(=O)NC1=O)C2=O` (stereo partly drawn) [Compound D27, 4-(((((S)-1-(2,6-dimethoxy-4-(2-methyl-1-oxo-1,2-dihydro-2,7-naphthyridin-4-yl)benzyl)azetidin-2-yl)methyl)(methyl)amino)methyl)-2-(2,6-dioxopiperidin-3-yl)isoindoline-1,3-dione]: the 50% inhibitory concentration (IC50) in assay [1] is less than 10 nM. Further, the DC50 in assay [2] lay within 10 to 100 nM.

Take `COc1cc(-c2cn(C)c(=O)c3cnccc23)cc(OC)c1CN1CCC(C2CCN(C(=O)CCOCCOc3ccc4c(c3)C(=O)N(C3CCC(=O)NC3=O)C4=O)C2)CC1` (centres unmarked) [Compound D129]: the half-maximal inhibitory concentration (IC50) in assay [1] and in assay [2] was less than 10 nM throughout.

Take `COc1cc(-c2cn(C)c(=O)c3cnccc23)cc(OC)c1CN(C)CC1CC2(C1)CN(C(=O)CCOCCOc1ccc3c(c1)C(=O)N(C1CCC(=O)NC1=O)C3=O)C2` (centres unmarked) [Compound D174]: the IC50 in assay [1] lay within 10 to 100 nM; in assay [2], 100 to 1000 nM.

Take `COc1cc(-c2cn(C)c(=O)c3cnccc23)cc(OC)c1CN1CC(C(=O)N2CCC(C3CCN(C(=O)COc4cccc5c4C(=O)N(C4CCC(=O)NC4=O)C5=O)CC3)CC2)C1` (centres unmarked) [Compound D6, 4-[2-[1-(1-[[2,6-dimethoxy-4-(2-methyl-1-oxo-1,2-dihydro-2,7-naphthyridin-4-yl)phenyl]methyl]azetidine-3-carbonyl)-[4,4-bipiperidin]-1-yl]-2-oxoethoxy]-2-(2,6-dioxopiperidin-3-yl)-2,3-dihydro-1H-isoindole-1,3-dione formic acid]: the half-maximal inhibitory concentration (IC50) in assay [1] and in assay [2] was less than 10 nM throughout.

With `COc1cc(-c2cn(C)c(=O)c3cnccc23)cc(OC)c1CN(C)CC1CC2CN(C(=O)CCOCCOc3ccc4c(c3)C(=O)N(C3CCC(=O)NC3=O)C4=O)C[C@@H]2C1` (some centres unmarked) [Compound D176], the IC50 in assay [1] and in assay [2] was less than 10 nM each time.

In the case of `COc1cc(-c2cn(C)c(=O)c3cnccc23)cc(OC)c1CN1CCC2(CC1)CN(C(=O)COc1ccc3c(c1)C(=O)N(C1CCC(=O)NC1=O)C3=O)CCO2` (centres unmarked) [Compound D64, 5-[2-(9-[[2,6-dimethoxy-4-(2-methyl-1-oxo-2,7-naphthyridin-4-yl)phenyl]methyl]-1-oxa-4,9-diazaspiro[5.5]undecan-4-yl)-2-oxoethoxy]-2-(2,6-dioxopiperidin-3-yl)isoindole-1,3-dione formic acid], the half-maximal inhibitory concentration (IC50) lay within 10 to 100 nM in assay [1] and 100 to 1000 nM in assay [2].

In assay [1], `COc1cc(-c2cn(C)c(=O)c3cnccc23)cc(OC)c1CN1CC(C(=O)NCCOCCOCCNc2cccc3c2C(=O)N(C2CCC(=O)NC2=O)C3=O)C1` (centres unmarked) [Compound D7, 1-[[2,6-dimethoxy-4-(2-methyl-1-oxo-1,2-dihydro-2,7-naphthyridin-4-yl)phenyl]methyl]-N-[2-[2-(2-[[2-(2,6-dioxopiperidin-3-yl)-1,3-dioxo-2,3-dihydro-1H-isoindol-4-yl]amino]ethoxy)ethoxy]ethyl]azetidine-3-carboxamide formic acid] showed an IC50 of less than 10 nM. The DC50 in assay [2] fell in the range of 10 to 100 nM.
